From patent publication US9938261B2, “Heterocyclic compounds and methods of use thereof” (AMBIT BIOSCIENCES CORPORATION, priority 2011, dated 2018)
Read-outs that look alike come from different tables or passages of the source.

What was measured:
[1] = target: T1, FLT3 (Homo sapiens, UniProt P36888); assay: Competition binding assay, FLT3 Kd
T1 construct: made in house
T1 sequence (P36888 27-993): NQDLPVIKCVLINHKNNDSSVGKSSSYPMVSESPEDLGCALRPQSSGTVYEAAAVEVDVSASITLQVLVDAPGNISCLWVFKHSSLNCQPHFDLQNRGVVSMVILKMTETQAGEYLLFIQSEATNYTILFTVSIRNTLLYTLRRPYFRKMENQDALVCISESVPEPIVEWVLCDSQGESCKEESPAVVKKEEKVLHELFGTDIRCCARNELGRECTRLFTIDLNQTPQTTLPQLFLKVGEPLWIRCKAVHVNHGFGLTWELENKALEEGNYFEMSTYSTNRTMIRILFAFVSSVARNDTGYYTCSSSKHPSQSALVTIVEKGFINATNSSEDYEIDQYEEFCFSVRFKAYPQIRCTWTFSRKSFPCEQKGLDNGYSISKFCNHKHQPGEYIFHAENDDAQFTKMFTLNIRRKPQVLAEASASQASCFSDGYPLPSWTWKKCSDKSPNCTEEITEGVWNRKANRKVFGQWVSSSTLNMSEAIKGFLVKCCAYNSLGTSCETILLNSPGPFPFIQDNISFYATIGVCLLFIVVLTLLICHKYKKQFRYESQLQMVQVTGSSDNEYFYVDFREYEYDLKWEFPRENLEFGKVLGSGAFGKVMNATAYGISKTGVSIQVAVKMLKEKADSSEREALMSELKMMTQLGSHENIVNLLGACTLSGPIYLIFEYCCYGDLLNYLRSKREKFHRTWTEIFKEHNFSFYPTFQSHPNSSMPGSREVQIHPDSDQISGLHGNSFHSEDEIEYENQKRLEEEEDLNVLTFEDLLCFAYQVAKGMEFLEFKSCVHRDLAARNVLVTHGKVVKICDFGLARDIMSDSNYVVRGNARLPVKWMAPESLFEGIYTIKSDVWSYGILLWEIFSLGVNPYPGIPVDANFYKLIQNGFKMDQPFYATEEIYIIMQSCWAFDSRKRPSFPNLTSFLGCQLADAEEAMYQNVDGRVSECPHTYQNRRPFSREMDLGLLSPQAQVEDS
Outline: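 Kinases as T7-phage fusions or HEK-293-expressed DNA-tagged constructs competed against immobilized biotinylated ligand on streptavidin beads, 1 h at room temperature in binding buffer. Bound kinase eluted and quantified by qPCR; Kd from eleven-point threefold dilution series.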

[2] = test system: M-NFS-60 cells; assay: M-NFS-60 cell proliferation assay (Alamar Blue); type: cell-based, mouse; details: Mus musculus, read-out: CSF1R M-NFS-60 CTB:IC50
Outline: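 Mouse M-NFS-60 cells growing on 20 ng/mL M-CSF in RPMI/10% FBS were exposed to compounds (9 half-log concentrations, 0.5% DMSO) for 72 h at 37 °C. Viability read by Alamar Blue fluorescence (ex 560/em 590 nm, 3 h). IC50 = 50% proliferation inhibition versus control, mean of duplicates.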

[3] = 72 hours incubation, M-CSF 20 ng/mL

SMILES	Kd [1]	Kd ([1]; competition binding)	IC50 [2, 3]	IC50 ([2]; M-NFS-60 cell proliferation)
COc1cc2ncn(Cc3ccc4nc(N[C@@H]5CCCCC[C@H]5O)sc4c3)c2cc1OC (racemic) [Example 50, (±)-2-((6-((5,6-dimethoxy-1H-benzo[d]imidazol-1-yl)methyl)benzo[d]thiazol-2-yl)amino)cycloheptanol]	≤ 200 nM		≤ 50 nM	
OCC1(CNc2nc3ccc(Cn4cnc5cccnc54)cc3s2)CCCCC1 [Example 76, (1-(((6-((3H-imidazo[4,5-b]pyridin-3-yl)methyl)benzo[d]thiazol-2-yl)amino)methyl)cyclohexyl)methanol]	≤ 200 nM		50 to 400 nM	
CC(=NO)c1ccn2c(Cc3ccc4nc(N[C@@H]5CCCC[C@H]5O)sc4c3)cnc2c1 [Example 202, 1-(3-((2-(((1R,2R)-2-hydroxycyclohexyl)amino)benzo[d]thiazol-6-yl)methyl)imidazo[1,2-a]pyridin-7-yl)ethanone oxime]		1000 to 5000 nM		50 to 400 nM
O=C1CCCC[C@H]1Nc1nc2ccc(Cn3cnc4cccnc43)cc2s1 [Example 54, (R)-2-((6-((3H-imidazo[4,5-b]pyridin-3-yl)methyl)benzo[d]thiazol-2-yl)amino)cyclohexanone]	> 5000 nM		50 to 400 nM	
COc1cc2ncn(Cc3ccc4nc(NCC5CCCCC5)oc4c3)c2cc1OC [Example 35, N-(cyclohexylmethyl)-6-((5,6-dimethoxy-1H-benzo[d]imidazol-1-yl)methyl)benzo[d]oxazol-2-amine]	≤ 200 nM		50 to 400 nM	
O[C@@H]1CCCC[C@H]1Nc1nc2ccc(Cc3cnc4cc(-n5ccnc5)ccn34)cc2s1 [Example 214, (1R,2R)-2-((6-((7-(1H-imidazol-1-yl)imidazo[1,2-a]pyridin-3-yl)methyl)benzo[d]thiazol-2-yl)amino)cyclohexanol]		> 5000 nM		50 to 400 nM
COc1ccn2c(Cc3ccc4nc(N[C@@H]5CCCC[C@H]5O)sc4c3)cnc2c1 [Example 44, (1R,2R)-2-((6-((7-methoxyimidazo[1,2-a]pyridin-3-yl)methyl)benzo[d]thiazol-2-yl)amino)cyclohexanol]	> 5000 nM		50 to 400 nM	
Fc1cnc2c(c1)ncn2Cc1ccc2nc(N[C@@H]3CCCC[C@@H]3Cl)sc2c1 [Example 219, N-((1R,2S)-2-chlorocyclohexyl)-6-((6-fluoro-3H-imidazo[4,5-b]pyridin-3-yl)methyl)benzo[d]thiazol-2-amine]		1000 to 5000 nM		400 to 1500 nM
CC(=O)Nc1cn(Cc2ccc3nc(N[C@@H]4CCCC[C@H]4O)sc3c2)cn1 [Example 101, N-(1-((2-(((1R,2R)-2-hydroxycyclohexyl)amino)benzo[d]thiazol-6-yl)methyl)-1H-imidazol-4-yl)acetamide]	200 to 1000 nM		50 to 400 nM	
OC[C@H](Nc1nc2ccc(Cn3cnc4cccnc43)cc2s1)C1CCCCC1 [Example 64, (R)-2-((6-((3H-imidazo[4,5-b]pyridin-3-yl)methyl)benzo[d]thiazol-2-yl)amino)-2-cyclohexylethanol]	200 to 1000 nM		50 to 400 nM	
CC(=O)c1ccn2c(Cc3ccc4nc(N[C@@H]5CCCC[C@H]5O)sc4c3)cnc2c1 [Example 200, 1-(3-((2-(((1R,2R)-2-hydroxycyclohexyl)amino)benzo[d]thiazol-6-yl)methyl)imidazo[1,2-a]pyridin-7-yl)ethanone]		> 5000 nM		50 to 400 nM
O[C@@H]1CCCC[C@H]1Nc1nc2ccc(Cn3cnc4cc(C5=CCOCC5)cc(F)c43)cc2s1 [Example 208, (1R,2R)-2-((6-((5-(3,6-dihydro-2H-pyran-4-yl)-7-fluoro-1H-benzo[d]imidazol-1-yl)methyl)benzo[d]thiazol-2-yl)amino)cyclohexanol]		≤ 200 nM		≤ 50 nM
O[C@@H]1CCCC[C@H]1Nc1nc2ccc(Cc3cnc4ccccn34)cc2s1 [Example 38, (1R,2R)-2-((6-(imidazo[1,2-a]pyridin-3-ylmethyl)benzo[d]thiazol-2-yl)amino)cyclohexanol]	> 5000 nM		400 to 1500 nM	
Fc1cnc2c(c1)ncn2Cc1ccc2nc(N[C@@H]3CCCC[C@H]3Cl)sc2c1 [Example 198, N-((1R,2R)-2-chlorocyclohexyl)-6-((6-fluoro-3H-imidazo[4,5-b]pyridin-3-yl)methyl)benzo[d]thiazol-2-amine]		1000 to 5000 nM		50 to 400 nM
O[C@@H]1CCCC[C@H]1Nc1nc2ccc(Cn3cnc4cc(CN5CCOCC5)cnc43)cc2s1 [Example 82, (1R,2R)-2-((6-((6-(morpholinomethyl)-3H-imidazo[4,5-b]pyridin-3-yl)methyl)benzo[d]thiazol-2-yl)amino)cyclohexanol]	1000 to 5000 nM		400 to 1500 nM	
O[C@@H]1CCCC[C@H]1Nc1nc2ccc(Cc3cnc4cc(-n5ccnn5)ccn34)cc2s1 [Example 218, (1R,2R)-2-((6-((7-(1H-1,2,3-triazol-1-yl)imidazo[1,2-a]pyridin-3-yl)methyl)benzo[d]thiazol-2-yl)amino)cyclohexanol]		1000 to 5000 nM		50 to 400 nM

Now from value to compound, other results behind:

Kd [1]	Kd ([1]; competition binding)	SMILES	IC50 [2, 3]	IC50 ([2]; M-NFS-60 cell proliferation)
> 5000 nM		OC[C@@H]1CCCC[C@H]1Nc1nc2ccc(Cn3cnc4cccnc43)cc2s1 [Example 66, ((1R,2R)-2-((6-((3H-imidazo[4,5-b]pyridin-3-yl)methyl)benzo[d]thiazol-2-yl)amino)cyclohexyl)methanol]	400 to 1500 nM	
1000 to 5000 nM		O=C(O)c1cnc2c(c1)ncn2Cc1ccc2nc(N[C@@H]3CCCC[C@H]3O)sc2c1 [Example 81, 3-((2-(((1R,2R)-2-hydroxycyclohexyl)amino)benzo[d]thiazol-6-yl)methyl)-3H-imidazo[4,5-b]pyridine-6-carboxylic acid]	> 1500 nM	
	200 to 1000 nM	CS(=O)(=O)c1ccc2ncn(Cc3ccc4nc(N[C@@H]5CCCC[C@H]5O)sc4c3)c2n1 [Example 106, (1R,2R)-2-((6-((5-(methylsulfonyl)-3H-imidazo[4,5-b]pyridin-3-yl)methyl)benzo[d]thiazol-2-yl)amino)cyclohexanol]		> 1500 nM
≤ 200 nM		O[C@@H]1CCCC[C@H]1Nc1nc2ccc(Cn3cnc4cc(-c5cccnc5)cnc43)cc2s1 [Example 40, (1R,2R)-2-((6-((6-(pyridin-3-yl)-3H-imidazo[4,5-b]pyridin-3-yl)methyl)benzo[d]thiazol-2-yl)amino)cyclohexanol]	≤ 50 nM	
≤ 200 nM		Cn1cc(-c2cnc3c(c2)ncn3Cc2ccc3nc(N[C@@H]4CCCC[C@H]4O)sc3c2)cn1 [Example 39, (1R,2R)-2-((6-((6-(1-methyl-1H-pyrazol-4-yl)-3H-imidazo[4,5-b]pyridin-3-yl)methyl)benzo[d]thiazol-2-yl)amino)cyclohexanol]	≤ 50 nM	
200 to 1000 nM		N#Cc1ccc2ncn(Cc3ccc4nc(N[C@@H]5CCCC[C@H]5O)sc4c3)c2n1 [Example 87, 3-((2-(((1R,2R)-2-hydroxycyclohexyl)amino)benzo[d]thiazol-6-yl)methyl)-3H-imidazo[4,5-b]pyridine-5-carbonitrile]	≤ 50 nM	
1000 to 5000 nM		O[C@@H]1CCCC[C@H]1Nc1nc2ccc(Cn3cnc4cc(Br)ccc43)cc2s1 [Example 100, (1R,2R)-2-((6-((5-bromo-1H-benzo[d]imidazol-1-yl)methyl)benzo[d]thiazol-2-yl)amino)cyclohexanol]	50 to 400 nM	
1000 to 5000 nM		CS(=O)(=O)O.O[C@@H]1CCCC[C@H]1Nc1nc2ccc(Cn3cnc4cccnc43)cc2s1 [Example 3, (1R,2R)-2-((6-((3H-imidazo[4,5-b]pyridin-3-yl)methyl)benzo[d]thiazol-2-yl)amino)cyclohexanol methanesulfonic acid]	50 to 400 nM	
1000 to 5000 nM		N#Cc1cnc2c(c1)ncn2Cc1ccc2nc(N[C@@H]3CCCC[C@H]3O)sc2c1 [Example 43, 3-((2-(((1R,2R)-2-hydroxycyclohexyl)amino)benzo[d]thiazol-6-yl)methyl)-3H-imidazo[4,5-b]pyridine-6-carbonitrile]	50 to 400 nM	
	1000 to 5000 nM	O[C@@H]1CCCC[C@H]1Nc1nc2ccc(Cn3cnc4ccc(Br)cc43)cc2s1 [Example 107, (1R,2R)-2-((6-((6-bromo-1H-benzo[d]imidazol-1-yl)methyl)benzo[d]thiazol-2-yl)amino)cyclohexanol]		50 to 400 nM
